pEC50: −log10 of the molar value.

The experiment deals with human F508del-CFTR (Homo sapiens, UniProt P13569, DEL508-508). Kind of experiment: F508del-CFTR cell surface expression (corrector activity), DiscoveRx ß-galactosidase complementation chemiluminescence assay in recombinant U2OS cell line.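 As to all read-outs here: U2OS cells co-expressing ProLink-tagged F508del-CFTR and a membrane-anchored enzyme acceptor, where more surface CFTR restores β-galactosidase activity measured by chemiluminescence.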 The settings on record: U2OS cell line, 16h compound incubation; for pEC50: EC50, F508del-CFTR cell surface expression, geomean values; for Emax: U2OS, in relation to the Emax of the corrector lumacaftor (=100%), arithmetic mean values.
Sequence of human F508del-CFTR (P13569 with tags, fused parts or gaps DEL508-508): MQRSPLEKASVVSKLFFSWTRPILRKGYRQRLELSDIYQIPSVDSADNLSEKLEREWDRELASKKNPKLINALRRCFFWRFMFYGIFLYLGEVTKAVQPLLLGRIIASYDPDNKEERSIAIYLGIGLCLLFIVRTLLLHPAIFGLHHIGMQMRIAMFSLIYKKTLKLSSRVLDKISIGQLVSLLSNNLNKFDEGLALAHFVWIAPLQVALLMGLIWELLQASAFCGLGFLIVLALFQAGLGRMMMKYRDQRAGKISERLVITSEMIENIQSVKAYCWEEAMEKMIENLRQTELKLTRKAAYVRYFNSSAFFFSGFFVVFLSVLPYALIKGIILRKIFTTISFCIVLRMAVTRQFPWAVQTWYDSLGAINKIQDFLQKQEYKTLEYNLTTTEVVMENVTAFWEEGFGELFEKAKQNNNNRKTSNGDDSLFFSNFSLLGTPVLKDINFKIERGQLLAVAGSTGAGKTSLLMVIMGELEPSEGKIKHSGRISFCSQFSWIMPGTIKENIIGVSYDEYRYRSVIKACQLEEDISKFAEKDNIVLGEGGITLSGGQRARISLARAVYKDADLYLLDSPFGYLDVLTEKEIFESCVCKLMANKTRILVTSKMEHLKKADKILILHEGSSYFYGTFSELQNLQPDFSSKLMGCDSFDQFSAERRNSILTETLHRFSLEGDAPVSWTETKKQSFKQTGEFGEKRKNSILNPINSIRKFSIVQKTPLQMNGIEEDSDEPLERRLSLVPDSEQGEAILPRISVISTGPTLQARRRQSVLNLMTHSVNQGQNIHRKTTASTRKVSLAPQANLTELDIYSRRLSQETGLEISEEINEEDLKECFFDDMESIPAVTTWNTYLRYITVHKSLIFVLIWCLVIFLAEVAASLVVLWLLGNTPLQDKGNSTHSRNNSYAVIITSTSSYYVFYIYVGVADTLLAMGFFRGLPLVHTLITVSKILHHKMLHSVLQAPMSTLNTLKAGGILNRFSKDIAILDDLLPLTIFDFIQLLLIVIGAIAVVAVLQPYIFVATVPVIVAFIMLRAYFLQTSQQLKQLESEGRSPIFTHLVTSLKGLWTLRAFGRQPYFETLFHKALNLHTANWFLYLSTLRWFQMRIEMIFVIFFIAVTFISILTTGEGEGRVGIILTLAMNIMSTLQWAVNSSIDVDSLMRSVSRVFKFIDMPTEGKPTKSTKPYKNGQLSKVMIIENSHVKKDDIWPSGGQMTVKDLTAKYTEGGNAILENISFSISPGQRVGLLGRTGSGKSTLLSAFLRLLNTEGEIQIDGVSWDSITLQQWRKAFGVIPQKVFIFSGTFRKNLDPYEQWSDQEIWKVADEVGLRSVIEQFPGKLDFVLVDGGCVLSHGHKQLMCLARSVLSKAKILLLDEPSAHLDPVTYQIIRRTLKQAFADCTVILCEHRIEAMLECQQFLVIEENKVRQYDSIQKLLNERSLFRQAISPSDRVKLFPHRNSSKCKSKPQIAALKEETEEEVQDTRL

In the case of `CC(C)C[C@H]1C(=O)N2CCOC[C@@H]2C(=O)N[C@H](Cc2ccccc2)COc2ccc3ccccc3c2C(=O)N[C@H](C(=O)NCCc2nc(-c3ccccc3)no2)CC(=O)N1C` [Example 69, (9S,13S,19aR,22R)-22-benzyl-13-isobutyl-12-methyl-7,11,14,20-tetraoxo-N-(2-(3-phenyl-1,2,4-oxadiazol-5-yl)ethyl)-7,8,9,10,11,12,13,14,16,17,19,19a,20,21,22,23-hexadecahydro-[1,4]oxazino[3′,4′:6,7][1]oxa[4,7,10,14]tetraazacycloheptadecino[17,16-c]quinoline-9-carboxamide], the pEC50 (usually the EC50 on a negative log10 scale, so that one unit is a factor of ten) was 6.34 and the Emax – broadly, the greatest response seen or fitted, relative to the assay's reference – worked out at 262%.
On the same counts, the results for `Cc1onc(CCNC(=O)[C@@H]2CC(=O)N(C)[C@@H](CC(C)C)C(=O)N3CCOC[C@@H]3C(=O)N[C@H](Cc3ccccc3)COc3ccc4ccccc4c3C(=O)N2)c1C` [Example 70, (4aR,7R,18S,22S)-7-benzyl-N-(2-(4,5-dimethylisoxazol-3-yl)ethyl)-22-isobutyl-21-methyl-5,16,20,23-tetraoxo-1,2,4,4a,5,6,7,8,16,17,18,19,20,21,22,23-hexadecahydronaphtho[1,2-p][1,4]oxazino[3,4-f][1]oxa[4,7,10,14]tetraazacycloheptadecine-18-carboxamide] are 6.12 and 202%.
The like results for `COc1cc(CCNC(=O)[C@@H]2CC(=O)N(C)[C@@H](CC(C)C)C(=O)N3CCCC[C@@H]3C(=O)N[C@H](Cc3ccccc3)COc3cnc4ccccc4c3C(=O)N2)cc(OC)c1` [Example 71, (9S,13S,19aR,22R)-22-benzyl-N-(3,5-dimethoxyphenethyl)-13-isobutyl-12-methyl-7,11,14,20-tetraoxo-7,8,9,10,11,12,13,14,17,18,19,19a,20,21,22,23-hexadecahydro-16H-pyrido[2′,11:6,7][1]oxa[4,7,10,14]tetraazacycloheptadecino[17,16-c]quinoline-9-carboxamide] were, in that order, 6.47 and 326%.
The like results for `CC(C)C[C@H]1C(=O)N2CCCC[C@@H]2C(=O)N[C@H](Cc2ccccc2)COc2cnc3ccccc3c2C(=O)N[C@H](C(=O)NCCc2c(F)cccc2F)CC(=O)N1C` [Example 72, (9S,13S,19aR,22R)-22-benzyl-N-(2,6-difluorophenethyl)-13-isobutyl-12-methyl-7,11,14,20-tetraoxo-7,8,9,10,11,12,13,14,17,18,19,19a,20,21,22,23-hexadecahydro-16H-pyrido[2′,1′:6,7][1]oxa[4,7,10,14]tetraazacycloheptadecino[17,16-c]quinoline-9-carboxamide] were, in that order, 6.85 and 335%.
As to `CC(C)C[C@H]1C(=O)N2CCCC[C@@H]2C(=O)N[C@H](Cc2ccccc2)COc2cnc3ccccc3c2C(=O)N[C@H](C(=O)NCCc2c(F)cc(F)cc2F)CC(=O)N1C` [Example 73, (9S,13S,19aR,22R)-22-benzyl-13-isobutyl-12-methyl-7,11,14,20-tetraoxo-N-(2,4,6-trifluorophenethyl)-7,8,9,10,11,12,13,14,17,18,19,19a,20,21,22,23-hexadecahydro-16H-pyrido[2′,1′:6,7][1]oxa[4,7,10,14]tetraazacycloheptadecino[17,16-c]quinoline-9-carboxamide], the pEC50 was 6.67 and the Emax is 253%.
On the same counts, the results for `COc1cc(F)c(CCNC(=O)[C@@H]2CC(=O)N(C)[C@@H](CC(C)C)C(=O)N3CCCC[C@@H]3C(=O)N[C@H](Cc3ccccc3)COc3cnc4ccccc4c3C(=O)N2)c(F)c1` [Example 74, (9S,13S,19aR,22R)-22-benzyl-N-(2,6-difluoro-4-methoxyphenethyl)-13-isobutyl-12-methyl-7,11,14,20-tetraoxo-7,8,9,10,11,12,13,14,17,18,19,19a,20,21,22,23-hexadecahydro-16H-pyrido[2′,1′:6,7][1]oxa[4,7,10,14]tetraazacycloheptadecino[17,16-c]quinoline-9-carboxamide] are 6.89 and 271%.
The like results for `CC(C)C[C@H]1C(=O)N2CCCC[C@@H]2C(=O)N[C@H](Cc2ccccc2)COc2cnc3ccccc3c2C(=O)N[C@H](C(=O)NCCc2ccc(F)c(F)c2)CC(=O)N1C` [Example 75, (9S,13S,19aR,22R)-22-benzyl-N-(3,4-difluorophenethyl)-13-isobutyl-12-methyl-7,11,14,20-tetraoxo-7,8,9,10,11,12,13,14,17,18,19,19a,20,21,22,23-hexadecahydro-16H-pyrido[2′,1′:6,7][1]oxa[4,7,10,14]tetraazacycloheptadecino[17,16-c]quinoline-9-carboxamide] were, in that order, 6.59 and 191%.
As to `CC(C)C[C@H]1C(=O)N2CCCC[C@@H]2C(=O)N[C@H](Cc2ccccc2)COc2cnc3ccccc3c2C(=O)N[C@H](C(=O)NCCc2nc(-c3ccccc3)no2)CC(=O)N1C` [Example 76, (9S,13S,19aR,22R)-22-benzyl-13-isobutyl-12-methyl-7,11,14,20-tetraoxo-N-(2-(3-phenyl-1,2,4-oxadiazol-5-yl)ethyl)-7,8,9,10,11,12,13,14,17,18,19,19a,20,21,22,23-hexadecahydro-16H-pyrido[2′,1′:6,7][1]oxa[4,7,10,14]tetraazacycloheptadecino[17,16-c]quinoline-9-carboxamide], the pEC50 was 6.71 and the Emax was 283%.
The like results for `CC(C)C[C@H]1C(=O)N2CCCC[C@@H]2C(=O)N[C@H](Cc2ccccc2)COc2cnc3ccccc3c2C(=O)N[C@H](C(=O)NCCc2ccccc2)CC(=O)N1C` [Example 77, (9S,13S,19aR,22R)-22-benzyl-13-isobutyl-12-methyl-7,11,14,20-tetraoxo-N-phenethyl-7,8,9,10,11,12,13,14,17,18,19,19a,20,21,22,23-hexadecahydro-16H-pyrido[2′,1′:6,7][1]oxa[4,7,10,14]tetraazacycloheptadecino[17,16-c]quinoline-9-carboxamide] were, in that order, 6.64 and 237%.
The like results for `Cc1nc(CCNC(=O)[C@@H]2CC(=O)N(C)[C@@H](CC(C)C)C(=O)N3CCCC[C@@H]3C(=O)N[C@H](Cc3ccccc3)COc3cnc4ccccc4c3C(=O)N2)no1` [Example 78, (9S,13S,19aR,22R)-22-benzyl-13-isobutyl-12-methyl-N-(2-(5-methyl-1,2,4-oxadiazol-3-yl)ethyl)-7,11,14,20-tetraoxo-7,8,9,10,11,12,13,14,17,18,19,19a,20,21,22,23-hexadecahydro-16H-pyrido[2′,1′:6,7][1]oxa[4,7,10,14]tetraazacycloheptadecino[17,16-c]quinoline-9-carboxamide] were, in that order, 6.26 and 277%.
On to `CCc1nc(CCNC(=O)[C@@H]2CC(=O)N(C)[C@@H](CC(C)C)C(=O)N3CCCC[C@@H]3C(=O)N[C@H](Cc3ccccc3)COc3cnc4ccccc4c3C(=O)N2)no1` [Example 79, (9S,13S,19aR,22R)-22-benzyl-N-(2-(5-ethyl-1,2,4-oxadiazol-3-yl)ethyl)-13-isobutyl-12-methyl-7,11,14,20-tetraoxo-7,8,9,10,11,12,13,14,17,18,19,19a,20,21,22,23-hexadecahydro-16H-pyrido[2′,1′:6,7][1]oxa[4,7,10,14]tetraazacycloheptadecino[17,16-c]quinoline-9-carboxamide], for which the pEC50 is 6.49 and the maximum response (Emax) worked out at 296%.
On the same counts, the results for `CC(C)C[C@H]1C(=O)N2CCCC[C@@H]2C(=O)N[C@H](Cc2ccccc2)COc2cnc3ccccc3c2C(=O)N[C@H](C(=O)NCCc2noc(C3CC3)n2)CC(=O)N1C` [Example 80, (9S,13S,19aR,22R)-22-benzyl-N-(2-(5-cyclopropyl-1,2,4-oxadiazol-3-yl)ethyl)-13-isobutyl-12-methyl-7,11,14,20-tetraoxo-7,8,9,10,11,12,13,14,17,18,19,19a,20,21,22,23-hexadecahydro-16H-pyrido[2′,1′:6,7][1]oxa[4,7,10,14]tetraazacycloheptadecino[17,16-c]quinoline-9-carboxamide] are 6.77 and 308%.
On the same counts, the results for `COc1cccc(CCNC(=O)[C@@H]2CC(=O)N(C)[C@@H](CC(C)C)C(=O)N3CCCC[C@@H]3C(=O)N[C@H](Cc3ccccc3)COc3cnc4ccccc4c3C(=O)N2)c1OC` [Example 81, (9S,13S,19aR,22R)-22-benzyl-N-(2,3-dimethoxyphenethyl)-13-isobutyl-12-methyl-7,11,14,20-tetraoxo-7,8,9,10,11,12,13,14,17,18,19,19a,20,21,22,23-hexadecahydro-16H-pyrido[2′,11:6,7][1]oxa[4,7,10,14]tetraazacycloheptadecino[17,16-c]quinoline-9-carboxamide] are 6.63 and 232%.
In the case of `Cc1oncc1CCNC(=O)[C@@H]1CC(=O)N(C)[C@@H](CC(C)C)C(=O)N2CCCC[C@@H]2C(=O)N[C@H](Cc2ccccc2)COc2cnc3ccccc3c2C(=O)N1` [Example 82, (9S,13S,19aR,22R)-22-benzyl-13-isobutyl-12-methyl-N-(2-(5-methylisoxazol-4-yl)ethyl)-7,11,14,20-tetraoxo-7,8,9,10,11,12,13,14,17,18,19,19a,20,21,22,23-hexadecahydro-16H-pyrido[2′,1′:6,7][1]oxa[4,7,10,14]tetraazacycloheptadecino[17,16-c]quinoline-9-carboxamide], the pEC50 was 6.22 and the Emax was found to be 246%.
On the same counts, the results for `CC(C)C[C@H]1C(=O)N2CCCC[C@@H]2C(=O)N[C@H](Cc2ccccc2)COc2cnc3ccccc3c2C(=O)N[C@H](C(=O)NCCc2cnn(C)c2)CC(=O)N1C` [Example 83, (9S,13S,19aR,22R)-22-benzyl-13-isobutyl-12-methyl-N-(2-(1-methyl-1H-pyrazol-4-yl)ethyl)-7,11,14,20-tetraoxo-7,8,9,10,11,12,13,14,17,18,19,19a,20,21,22,23-hexadecahydro-16H-pyrido[2′,11:6,7][1]oxa[4,7,10,14]tetraazacycloheptadecino[17,16-c]quinoline-9-carboxamide] are 6.14 and 309%.
